Some test systems named below: MDA-N; LXFL 529 NSCLC; DMS 273 small cell lung; DLD-1 colon; RXF-631 renal; DMS 114 small cell lung; KM20L2 colon; HOP-18 NSCLC; SNB-78 CNS.
Holding throughout (test): NCI tumour cell line growth inhibition, 48 h

Among the data in PubChem BioAssay (NCI) are TGI and GI50 values, retold here.

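Cells were grown in 96-well plates and exposed to each compound for 48 hours at five concentrations; endpoints were interpolated linearly between bracketing concentrations, or set to the highest concentration if not reached. GI50 is the concentration that inhibits growth by half. TGI: concentration producing complete growth inhibition.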 Bounds are passed on as bounds.

`CC(C(N)=O)N(C)C(=O)c1cnc2ccccc2c1` (centres undefined) gave a TGI with MDA-N of over 100 µM.
As to `Cn1nc(-c2ccccc2)c(C(=O)/C=C/c2ccc(Cl)cc2)c(N2CCCC2)c1=O`, the TGI with LXFL 529 NSCLC was found to be 13 µM; in the test on DMS 273 small cell lung it was 24.2 µM; in the test with DLD-1 colon, 10.8 µM; in the test on RXF-631 renal it was 50.5 µM; in the test on DMS 114 small cell lung, 9.8 µM; with KM20L2 colon, 15.1 µM. The TGI in the test with HOP-18 NSCLC is 19.4 µM.
In the case of `COc1ccc2c(c1)c1c3n2CCNN=C3CCC1`, the TGI in the test on LXFL 529 NSCLC, with DMS 273 small cell lung, with DLD-1 colon, in the test on RXF-631 renal, in the test on DMS 114 small cell lung and in the test with KM20L2 colon was over 100 µM throughout. In addition, the TGI in the test on HOP-18 NSCLC is over 100 µM; in the test with SNB-78 CNS, over 94.3 µM.
`NNC(=O)C(O)C(O)C(=O)NN` (centres undefined) gave a TGI in the test with MDA-N of over 100 µM.
`C/C(=N\NS(=O)(=O)c1ccc([N+](=O)[O-])cc1)c1ccc[n+]([O-])n1`: the TGI was determined as 6.7 µM in the test on LXFL 529 NSCLC; 2.74 µM in the test on DMS 273 small cell lung; 20.3 µM in the test with DLD-1 colon; 4.75 µM with DMS 114 small cell lung; 19.5 µM in the test with KM20L2 colon; 68.2 µM in the test with HOP-18 NSCLC. For the same compound, the TGI in the test with SNB-78 CNS came out at 51.8 µM.
For `[CH3][Sn]1([CH3])[O]CC(COc2cc(Cl)c(Cl)cc2Cl)[O]1` (centres undefined), the GI50 in the test on LXFL 529 NSCLC is 41.2 µM; in the test with DMS 273 small cell lung, over 100 µM; in the test on DLD-1 colon, 54.5 µM; with DMS 114 small cell lung, 50.1 µM; with KM20L2 colon, over 100 µM; in the test on HOP-18 NSCLC, 75 µM. The GI50 in the test on SNB-78 CNS was 49.6 µM. Moreover, the TGI in the test with LXFL 529 NSCLC, in the test with DMS 273 small cell lung, with DLD-1 colon, with DMS 114 small cell lung, in the test with KM20L2 colon and in the test with HOP-18 NSCLC was over 100 µM throughout. This compound returned a TGI with SNB-78 CNS of over 100 µM.
With `CCCCCCCCCCCCCCCCOCC(O)CO` (centres undefined), the TGI in the test on MDA-N stood at 60.6 µM.
Take `Cn1cc(NC(=O)Nc2cc(C(=O)Nc3cc(C(=O)Nc4cc(S(=O)(=O)O)c5cc(S(=O)(=O)O)cc(S(=O)(=O)O)c5c4)n(C)c3)n(C)c2)cc1C(=O)Nc1cc(C(=O)Nc2cc(S(=O)(=O)O)c3cc(S(=O)(=O)O)cc(S(=O)(=O)O)c3c2)n(C)c1`: the TGI in the test with MDA-N is over 100 µM.
`CCCOC(=O)C1C2CCC(O2)C1C(=O)O` (centres undefined): in the test on MDA-N, the TGI is over 100 µM.
Turning to `COc1cc(-c2cc(=O)c3c(O)c(OC)c(OC)c(OC)c3o2)cc(OC)c1OC`, the TGI with MDA-N is over 100 µM.
With `CCCCNC1=C(C(=O)OCC)/C(=N/NC(=O)c2ccccc2O)CO1`, the TGI in the test on LXFL 529 NSCLC, with DLD-1 colon, in the test on DMS 114 small cell lung, in the test on KM20L2 colon, in the test with HOP-18 NSCLC and in the test on SNB-78 CNS was over 100 µM in each case.
Take `COc1ccc(C)cc1C1CCC(=O)O1` (centres undefined): the TGI in the test with LXFL 529 NSCLC, with DMS 273 small cell lung, in the test with DLD-1 colon, in the test with DMS 114 small cell lung, in the test on KM20L2 colon and in the test with HOP-18 NSCLC was over 100 µM each time. In addition, the TGI in the test on SNB-78 CNS is over 100 µM.
In the case of `CC(C)(C)Sc1nnc(SC(C)(C)C)c2c(=O)[nH]nc(SC(C)(C)C)c12`, the TGI with LXFL 529 NSCLC worked out at 23.1 µM; with DMS 273 small cell lung it was 21.3 µM; in the test on DLD-1 colon, 22.8 µM; with RXF-631 renal it was 20.5 µM; in the test with DMS 114 small cell lung, 15.5 µM; in the test with KM20L2 colon it was 22.1 µM. The same compound yielded a TGI in the test on SNB-78 CNS of 25.8 µM.
Take `O=C1C=Cc2ncccc2C1=O`: the TGI was 30.2 µM with LXFL 529 NSCLC; 30.9 µM in the test on DMS 273 small cell lung; 34.2 µM with DLD-1 colon; 39.5 µM in the test with RXF-631 renal; 33.6 µM in the test with DMS 114 small cell lung; over 63.2 µM in the test with KM20L2 colon. In addition, the TGI was over 64.7 µM in the test with HOP-18 NSCLC and over 66.5 µM in the test on SNB-78 CNS.
Consider `C#CCOCn1cnc2ncnc(N)c21`, for which the TGI with DMS 273 small cell lung, in the test on DLD-1 colon, in the test on DMS 114 small cell lung, in the test with HOP-18 NSCLC and in the test on SNB-78 CNS was over 100 µM each time.
`CC(=O)c1c2c(cc3c1CC1(C3)Cc3cc4c(c(C(=O)O)c3C1)CCC4)CCC2` (centres undefined): the TGI in the test with LXFL 529 NSCLC, in the test on DMS 273 small cell lung, in the test on DLD-1 colon, with DMS 114 small cell lung, in the test on HOP-18 NSCLC and in the test on SNB-78 CNS was over 100 µM throughout.
Turning to `COc1cc(C(C#N)NNc2nc(C)cc(=O)[nH]2)cc(OC)c1OC` (centres undefined), the TGI in the test with LXFL 529 NSCLC, in the test with DMS 273 small cell lung, in the test with DLD-1 colon, with KM20L2 colon, in the test on HOP-18 NSCLC and with SNB-78 CNS was over 100 µM throughout.
`Cc1cc(Br)cc(C)c1NC(=O)C(=O)Nn1c(=S)[nH]c2ccccc2c1=O` came in with a TGI in the test on MDA-N of over 100 µM.
Take `O=S1(=O)c2ccccc2N=C(c2ccccc2Cl)CC1c1ccc(F)cc1` (centres undefined): the TGI stood at 31.6 µM in the test with LXFL 529 NSCLC; 45.3 µM in the test on DMS 273 small cell lung; 28.6 µM in the test with DLD-1 colon; 41.1 µM in the test on DMS 114 small cell lung; 37.4 µM in the test with KM20L2 colon; 29.3 µM in the test with HOP-18 NSCLC. In the test with SNB-78 CNS, the TGI stood at 40.3 µM.
For the compound `CC(C)N1C(C)[C@@H](c2ccccc2)O[P@]1(=O)CC1=CCCCC1` (some centres undefined), the TGI with LXFL 529 NSCLC, with DLD-1 colon, in the test with DMS 114 small cell lung, with KM20L2 colon and in the test on HOP-18 NSCLC was over 100 µM in each case.
As for `Cc1ccc2nc(NC(=O)C(=O)CC(=O)c3cccc4ccccc34)sc2c1`, the TGI with LXFL 529 NSCLC, with DMS 273 small cell lung, in the test on DLD-1 colon, with KM20L2 colon, in the test with HOP-18 NSCLC and in the test with SNB-78 CNS was over 100 µM each time.
Consider `CNC(c1ccncc1)C(NC)c1ccncc1` (centres undefined), for which the TGI in the test with MDA-N was over 100 µM.
As for `N#CC(C(=O)CCCC(=O)Nc1ccc(Cl)cc1Cl)c1ccc(Cl)cc1` (centres undefined), the TGI in the test with LXFL 529 NSCLC, in the test with DMS 273 small cell lung, in the test with DLD-1 colon, with RXF-631 renal, in the test on KM20L2 colon and in the test with HOP-18 NSCLC was over 100 µM in each case. In the test with SNB-78 CNS, this compound showed a TGI of over 100 µM.
